Experimental data from patent US10040790B2, “Bicyclic heterocycles as FGFR inhibitors” (Incyte Corporation, priority 2013, dated 2018).

How the values were obtained:
Assay type in all cases: biochemical
[1] = target: FGFR1 (Homo sapiens (Human), UniProt P11362); experiment: FGFR Enzymatic Assay (FRET peptide phosphorylation), FGFR1; conditions: ATP 210 μM, enzyme 0.02 nM
Method: (§1) The inhibitor potency of the exemplified compounds was measured in an enzyme assay that measures peptide phosphorylation using FRET measurements to detect product formation. Inhibitors were serially diluted in DMSO and a volume of 0.5 μL was transferred to the wells of a 384-well plate. For FGFR3, a 10 μL volume of FGFR3 enzyme (Millipore) diluted in assay buffer (50 mM HEPES, 10 mM MgCl2, 1 mM EGTA, 0.01% Tween-20, 5 mM DTT, pH 7.5) was added to the plate and pre-incubated for 5-10 minutes. Appropriate controls (enzyme blank and enzyme with no inhibitor) were included on the plate. The assay was initiated by the addition of a 10 μL solution containing biotinylated EQEDEPEGDYFEWLE peptide substrate (SEQ ID NO: 1) and ATP (final concentrations of 500 nM and 140 μM respectively) in assay buffer to the wells. The plate was incubated at 25° C. for 1 hr. The reactions were ended with the addition of 10 μL/well of quench solution (50 mM Tris, 150 mM NaCl, 0.5 mg/mL BSA, pH 7.8; 30 mM EDTA with Perkin Elmer Lance Reagents at 3.75 nM Eu-antibody PY20 and 180 nM APC-Streptavidin). The plate was allowed to equilibrate for ˜1 hr before scanning the wells on a PheraStar plate reader (BMG Labtech).
(§2) FGFR1 and FGFR2 were measured under equivalent conditions with the following changes in enzyme and ATP concentrations: FGFR1, 0.02 nM and 210 μM, respectively and FGFR2, 0.01 nM and 100 μM, respectively. The enzymes were purchased from Millipore or Invitrogen.
(§3) GraphPad prism3 was used to analyze the data. The IC50 values were derived by fitting the data to the equation for a sigmoidal dose-response with a variable slope. Y=Bottom+(Top−Bottom)/(1+10^((Log IC50−X)*HillSlope)) where X is the logarithm of concentration and Y is the response.

[2] = target: FGFR2 (Homo sapiens (Human), UniProt P21802); experiment: FGFR Enzymatic Assay (FRET peptide phosphorylation), FGFR2; conditions: ATP 100 μM, enzyme 0.01 nM
Method: as §1, §2, §3

[3] = target: FGFR3 (Homo sapiens (Human), UniProt P22607); experiment: FGFR Enzymatic Assay (FRET peptide phosphorylation), FGFR3; conditions: ATP 140 μM
Method: as §1, §3

Measured: IC50

FGFR2, sequence (P21802 22-821): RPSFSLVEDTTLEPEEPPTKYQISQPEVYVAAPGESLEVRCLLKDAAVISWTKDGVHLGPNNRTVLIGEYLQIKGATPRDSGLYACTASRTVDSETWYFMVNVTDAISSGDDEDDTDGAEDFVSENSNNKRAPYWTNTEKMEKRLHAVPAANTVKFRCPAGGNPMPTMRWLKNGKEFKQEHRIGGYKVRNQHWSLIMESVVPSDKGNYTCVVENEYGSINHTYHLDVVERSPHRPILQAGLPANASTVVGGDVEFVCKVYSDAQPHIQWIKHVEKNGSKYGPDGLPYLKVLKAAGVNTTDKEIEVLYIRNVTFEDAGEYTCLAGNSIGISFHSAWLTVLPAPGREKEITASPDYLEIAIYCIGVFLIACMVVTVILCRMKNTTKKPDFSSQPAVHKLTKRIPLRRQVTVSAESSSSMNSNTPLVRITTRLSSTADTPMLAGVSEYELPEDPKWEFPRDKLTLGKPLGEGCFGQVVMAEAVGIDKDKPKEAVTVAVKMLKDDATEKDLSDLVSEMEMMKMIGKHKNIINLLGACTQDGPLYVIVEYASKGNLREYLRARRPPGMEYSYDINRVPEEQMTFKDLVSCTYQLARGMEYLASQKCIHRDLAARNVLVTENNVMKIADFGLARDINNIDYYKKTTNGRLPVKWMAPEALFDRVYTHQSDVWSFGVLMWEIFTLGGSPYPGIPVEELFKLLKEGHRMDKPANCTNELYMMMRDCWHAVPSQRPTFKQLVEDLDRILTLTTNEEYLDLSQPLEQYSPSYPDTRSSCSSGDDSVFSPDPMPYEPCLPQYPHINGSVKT
FGFR1, sequence (P11362 22-822): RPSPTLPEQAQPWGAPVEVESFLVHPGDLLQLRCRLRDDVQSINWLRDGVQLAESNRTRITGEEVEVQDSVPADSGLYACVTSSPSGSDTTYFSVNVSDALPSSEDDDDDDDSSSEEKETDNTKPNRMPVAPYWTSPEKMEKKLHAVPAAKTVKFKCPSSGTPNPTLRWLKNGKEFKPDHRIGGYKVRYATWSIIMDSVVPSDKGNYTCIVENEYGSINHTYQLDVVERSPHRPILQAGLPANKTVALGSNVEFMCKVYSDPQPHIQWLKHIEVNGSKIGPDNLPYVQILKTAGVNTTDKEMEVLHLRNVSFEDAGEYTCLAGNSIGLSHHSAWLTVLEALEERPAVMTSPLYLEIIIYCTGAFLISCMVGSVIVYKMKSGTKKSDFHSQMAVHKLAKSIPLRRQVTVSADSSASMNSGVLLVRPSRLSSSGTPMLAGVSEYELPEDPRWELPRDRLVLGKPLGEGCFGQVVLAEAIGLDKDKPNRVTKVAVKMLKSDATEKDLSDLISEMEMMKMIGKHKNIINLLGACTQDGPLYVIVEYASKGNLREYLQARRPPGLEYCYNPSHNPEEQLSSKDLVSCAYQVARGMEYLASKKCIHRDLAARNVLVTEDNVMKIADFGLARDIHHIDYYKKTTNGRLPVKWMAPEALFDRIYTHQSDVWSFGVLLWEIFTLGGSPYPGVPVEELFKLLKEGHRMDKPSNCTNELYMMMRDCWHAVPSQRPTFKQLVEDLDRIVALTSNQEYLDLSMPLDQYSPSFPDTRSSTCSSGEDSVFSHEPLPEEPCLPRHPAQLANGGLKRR
FGFR3, sequence (P22607 23-806): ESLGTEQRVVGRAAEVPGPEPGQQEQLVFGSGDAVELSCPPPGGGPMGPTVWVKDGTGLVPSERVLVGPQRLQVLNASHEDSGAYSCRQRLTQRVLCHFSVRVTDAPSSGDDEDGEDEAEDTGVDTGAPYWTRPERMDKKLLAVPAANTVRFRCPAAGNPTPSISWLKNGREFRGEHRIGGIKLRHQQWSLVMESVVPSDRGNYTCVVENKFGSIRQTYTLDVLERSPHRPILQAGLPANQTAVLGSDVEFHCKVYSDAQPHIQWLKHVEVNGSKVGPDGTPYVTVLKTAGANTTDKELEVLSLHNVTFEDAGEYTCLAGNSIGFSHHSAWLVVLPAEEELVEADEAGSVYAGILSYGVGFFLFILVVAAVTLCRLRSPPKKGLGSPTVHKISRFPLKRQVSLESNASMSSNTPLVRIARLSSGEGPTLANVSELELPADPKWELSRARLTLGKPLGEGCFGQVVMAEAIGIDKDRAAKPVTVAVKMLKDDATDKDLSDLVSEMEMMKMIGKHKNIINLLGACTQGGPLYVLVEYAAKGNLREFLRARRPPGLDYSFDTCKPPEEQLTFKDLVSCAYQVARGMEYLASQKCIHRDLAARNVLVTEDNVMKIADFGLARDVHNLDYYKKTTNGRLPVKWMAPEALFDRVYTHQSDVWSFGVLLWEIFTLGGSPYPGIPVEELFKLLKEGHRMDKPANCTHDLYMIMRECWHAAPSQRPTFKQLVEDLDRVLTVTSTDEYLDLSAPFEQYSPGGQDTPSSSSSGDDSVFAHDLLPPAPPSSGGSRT

COc1cc(OC)c(F)c(N2Cc3cnc(NC4CCN(C)CC4)cc3C3(CC3)C2=O)c1F [Example 44, 2′-(2,6-difluoro-3,5-dimethoxyphenyl)-6′-(1-methylpiperidin-4-ylamino)-1′H-spiro[cyclopropane-1,4′-[2,7]naphthyridin]-3′(2′H)-one]
< 100 nM: all assays above

COc1cc(OC)c(F)c(N2Cc3cnc(N)c(C)c3N(c3ccccc3F)C2=O)c1F [Example 45, 7-amino-3-(2,6-difluoro-3,5-dimethoxyphenyl)-1-(2-fluorophenyl)-8-methyl-3,4-dihydropyrido[4,3-d]pyrimidin-2(1H)-one]
< 100 nM: all assays above

COc1cc(OC)c(F)c(N2Cc3cnc(N)c(C)c3N(c3nnn(C)n3)C2=O)c1F [Example 46, 7-amino-3-(2,6-difluoro-3,5-dimethoxyphenyl)-8-methyl-1-(2-methyl-2H-tetrazol-5-yl)-3,4-dihydropyrido[4,3-d]pyrimidin-2(1H)-one]
< 100 nM: all assays above

COc1cc(OC)c(F)c(N2Cc3cnc(N)c(C)c3N(Cc3cnn(C)c3)C2=O)c1F [Example 47, 7-amino-3-(2,6-difluoro-3,5-dimethoxyphenyl)-8-methyl-1-[(1-methyl-1H-pyrazol-4-yl)methyl]-3,4-dihydropyrido[4,3-d]pyrimidin-2(1H)-one]
< 100 nM: all assays above

COC(=O)Nc1ncc2c(c1C)N(C)C(=O)N(c1c(F)c(OC)cc(OC)c1F)C2 [Example 48, methyl [3-(2,6-difluoro-3,5-dimethoxyphenyl)-1,8-dimethyl-2-oxo-1,2,3,4-tetrahydropyrido [4,3-d]pyrimidin-7-yl]carbamate]
< 100 nM: all assays above

COc1cc(OC)c(F)c(N2Cc3cnc(N)c(C#N)c3N(CC3CC3)C2=O)c1F [Example 49, 7-amino-1-(cyclopropylmethyl)-3-(2,6-difluoro-3,5-dimethoxyphenyl)-2-oxo-1,2,3,4-tetrahydropyrido[4,3-d]pyrimidine-8-carbonitrile]
< 100 nM: all assays above

COc1cc(OC)c(F)c(N2Cc3cnc(N)c(C#N)c3N(C3CCCC3)C2=O)c1F [Example 50, 7-amino-1-cyclopentyl-3-(2,6-difluoro-3,5-dimethoxyphenyl)-2-oxo-1,2,3,4-tetrahydropyrido[4,3-d]pyrimidine-8-carbonitrile]
< 100 nM: all assays above

COc1cc(OC)c(F)c(N2Cc3cnc(N)c(C#N)c3N(Cc3cnn(C)c3)C2=O)c1F [Example 51, 7-amino-3-(2,6-difluoro-3,5-dimethoxyphenyl)-1-[(1-methyl-1H-pyrazol-4-yl)methyl]-2-oxo-1,2,3,4-tetrahydropyrido[4,3-d]pyrimidine-8-carbonitrile]
< 100 nM: all assays above

COc1cc(OC)c(F)c(N2Cc3cnc(N)c(C#N)c3N(Cc3cc(F)cc(F)c3)C2=O)c1F [Example 52, 7-amino-1-(3,5-difluorobenzyl)-3-(2,6-difluoro-3,5-dimethoxyphenyl)-2-oxo-1,2,3,4-tetrahydropyrido[4,3-d]pyrimidine-8-carbonitrile]
< 100 nM: all assays above

COc1cc(OC)c(F)c(N2Cc3cnc(N)c(C#N)c3N(c3ccccc3F)C2=O)c1F [Example 53, 7-amino-3-(2,6-difluoro-3,5-dimethoxyphenyl)-1-(2-fluorophenyl)-2-oxo-1,2,3,4-tetrahydropyrido[4,3-d]pyrimidine-8-carbonitrile]
< 100 nM: all assays above

COc1cc(OC)c(F)c(N2Cc3cnc(N)c(Cl)c3N(C)C2=O)c1F [Example 54, 7-amino-8-chloro-3-(2,6-difluoro-3,5-dimethoxyphenyl)-1-methyl-3,4-dihydropyrido[4,3-d]pyrimidin-2(1H)-one]
< 100 nM: all assays above
